± gives the expanded uncertainty stated by the source.
Assay: an = ratio of the nth substance listed
Conditions: for viscosity / speed of sound / mass density: 102 kPa, Liquid; for viscosity: Concentric cylinders viscometry; for speed of sound: Frequency=3 MHz, Sing-around technique in a fixed-path interferometer; for mass density: Vibrating tube method; for surface tension liquid-gas: 294.5 K, Pendant drop shape

## CCCCC1CCCCC1 [butylcyclohexane] + CCCCCCCCCCCCCCCC
293.15 K, a2 = 0.25
  viscosity: 1.68 ± 0.01 mPa·s
  speed of sound: 1334.4 ± 1 m/s
  mass density: 791.29 ± 0.32 kg/m3
293.15 K, a2 = 0.3333
  viscosity: 1.78 ± 0.01 mPa·s
  speed of sound: 1335.5 ± 1 m/s
  mass density: 789.5 ± 0.32 kg/m3
293.15 K, a2 = 0.3335
  viscosity: 1.78 ± 0.01 mPa·s
  speed of sound: 1335.2 ± 1 m/s
  mass density: 789.61 ± 0.32 kg/m3
293.15 K, a2 = 0.6666
  viscosity: 2.08 ± 0.01 mPa·s
  mass density: 785.19 ± 0.32 kg/m3
293.15 K, a2 = 0.9992
  viscosity: 2.29 ± 0.02 mPa·s
  speed of sound: 1342.9 ± 1 m/s
  mass density: 782.68 ± 0.32 kg/m3
293.15 K, a2 = 0.9997
  viscosity: 2.29 ± 0.02 mPa·s
  speed of sound: 1342.9 ± 1 m/s
  mass density: 782.68 ± 0.32 kg/m3
293.15 K, a2 = 1.5
  viscosity: 2.5 ± 0.02 mPa·s
  speed of sound: 1345.6 ± 1 m/s
  mass density: 780.35 ± 0.32 kg/m3
293.15 K, a2 = 2.997
  viscosity: 2.84 ± 0.02 mPa·s
  speed of sound: 1349.7 ± 1 m/s
  mass density: 777.44 ± 0.32 kg/m3
293.15 K, a2 = 3.001
  viscosity: 2.84 ± 0.02 mPa·s
  speed of sound: 1350 ± 1 m/s
  mass density: 777.44 ± 0.32 kg/m3
293.15 K, a2 = 3.998
  viscosity: 2.96 ± 0.02 mPa·s
  speed of sound: 1350.8 ± 1 m/s
  mass density: 776.54 ± 0.32 kg/m3
293.15 K, a2 = 0.6667
  speed of sound: 1339.5 ± 1 m/s
a2 = 0.25
  surface tension liquid-gas: 26.6 ± 0.3 mN/m
a2 = 0.3333
  surface tension liquid-gas: 26.7 ± 0.3 mN/m
a2 = 0.3335
  surface tension liquid-gas: 26.9 ± 0.3 mN/m
a2 = 0.6667
  surface tension liquid-gas: 26.9 ± 0.3 mN/m
a2 = 0.9992
  surface tension liquid-gas: 26.9 ± 0.3 mN/m
a2 = 0.9997
  surface tension liquid-gas: 26.9 ± 0.3 mN/m
a2 = 1.5
  surface tension liquid-gas: 26.9 ± 0.3 mN/m
a2 = 2.997
  surface tension liquid-gas: 27.1 ± 0.3 mN/m
a2 = 3.001
  surface tension liquid-gas: 27 ± 0.3 mN/m
a2 = 3.998
  surface tension liquid-gas: 27 ± 0.3 mN/m
303.15 K, a2 = 0.25
  viscosity: 1.4 ± 0.01 mPa·s
  speed of sound: 1295.9 ± 1 m/s
  mass density: 784.02 ± 0.32 kg/m3
303.15 K, a2 = 0.3333
  viscosity: 1.5 ± 0.01 mPa·s
  speed of sound: 1297.1 ± 1 m/s
  mass density: 782.27 ± 0.32 kg/m3
303.15 K, a2 = 0.3335
  viscosity: 1.49 ± 0.01 mPa·s
  speed of sound: 1296.8 ± 1 m/s
  mass density: 782.37 ± 0.32 kg/m3
303.15 K, a2 = 0.6666
  viscosity: 1.71 ± 0.01 mPa·s
  mass density: 778.07 ± 0.32 kg/m3
303.15 K, a2 = 0.9992
  viscosity: 1.87 ± 0.01 mPa·s
  speed of sound: 1305.2 ± 1 m/s
  mass density: 775.6 ± 0.32 kg/m3
303.15 K, a2 = 0.9997
  viscosity: 1.87 ± 0.01 mPa·s
  speed of sound: 1305.2 ± 1 m/s
  mass density: 775.6 ± 0.32 kg/m3
303.15 K, a2 = 1.5
  viscosity: 2.04 ± 0.01 mPa·s
  speed of sound: 1308.2 ± 1 m/s
  mass density: 773.33 ± 0.32 kg/m3
303.15 K, a2 = 2.997
  viscosity: 2.29 ± 0.02 mPa·s
  speed of sound: 1312.4 ± 1 m/s
  mass density: 770.54 ± 0.32 kg/m3
303.15 K, a2 = 3.001
  viscosity: 2.29 ± 0.02 mPa·s
  speed of sound: 1312.7 ± 1 m/s
  mass density: 770.45 ± 0.32 kg/m3
303.15 K, a2 = 3.998
  viscosity: 2.37 ± 0.02 mPa·s
  speed of sound: 1313.6 ± 1 m/s
  mass density: 769.57 ± 0.32 kg/m3
303.15 K, a2 = 0.6667
  speed of sound: 1301.7 ± 1 m/s
313.15 K, a2 = 0.25
  viscosity: 1.19 ± 0.01 mPa·s
  speed of sound: 1257.8 ± 1 m/s
  mass density: 776.71 ± 0.32 kg/m3
313.15 K, a2 = 0.3333
  viscosity: 1.26 ± 0.01 mPa·s
  speed of sound: 1259.3 ± 1 m/s
  mass density: 775.01 ± 0.32 kg/m3
313.15 K, a2 = 0.3335
  viscosity: 1.26 ± 0.01 mPa·s
  speed of sound: 1259.1 ± 1 m/s
  mass density: 775.12 ± 0.32 kg/m3
313.15 K, a2 = 0.6666
  viscosity: 1.44 ± 0.01 mPa·s
  mass density: 770.92 ± 0.32 kg/m3
313.15 K, a2 = 0.9992
  viscosity: 1.56 ± 0.01 mPa·s
  speed of sound: 1268.2 ± 1 m/s
  mass density: 768.51 ± 0.32 kg/m3
313.15 K, a2 = 0.9997
  viscosity: 1.56 ± 0.01 mPa·s
  speed of sound: 1268.2 ± 1 m/s
  mass density: 768.51 ± 0.32 kg/m3
313.15 K, a2 = 1.5
  viscosity: 1.69 ± 0.01 mPa·s
  speed of sound: 1271.3 ± 1 m/s
  mass density: 766.29 ± 0.32 kg/m3
313.15 K, a2 = 2.997
  viscosity: 1.88 ± 0.01 mPa·s
  speed of sound: 1275.9 ± 1 m/s
  mass density: 763.47 ± 0.32 kg/m3
313.15 K, a2 = 3.001
  viscosity: 1.88 ± 0.01 mPa·s
  speed of sound: 1276 ± 1 m/s
  mass density: 763.47 ± 0.32 kg/m3
313.15 K, a2 = 3.998
  viscosity: 1.95 ± 0.01 mPa·s
  speed of sound: 1277 ± 1 m/s
  mass density: 762.61 ± 0.32 kg/m3
313.15 K, a2 = 0.6667
  speed of sound: 1264.4 ± 1 m/s
323.15 K, a2 = 0.25
  viscosity: 1.03 ± 0.01 mPa·s
  speed of sound: 1220.2 ± 1 m/s
  mass density: 769.38 ± 0.32 kg/m3
323.15 K, a2 = 0.3333
  viscosity: 1.08 ± 0.01 mPa·s
  speed of sound: 1222.1 ± 1 m/s
  mass density: 767.73 ± 0.32 kg/m3
323.15 K, a2 = 0.3335
  viscosity: 1.08 ± 0.01 mPa·s
  speed of sound: 1222 ± 1 m/s
  mass density: 767.83 ± 0.32 kg/m3
323.15 K, a2 = 0.6667
  viscosity: 1.23 ± 0.01 mPa·s
  speed of sound: 1227.5 ± 1 m/s
  mass density: 763.75 ± 0.32 kg/m3
323.15 K, a2 = 0.9992
  viscosity: 1.33 ± 0.01 mPa·s
  speed of sound: 1231.8 ± 1 m/s
  mass density: 761.41 ± 0.32 kg/m3
323.15 K, a2 = 0.9997
  viscosity: 1.33 ± 0.01 mPa·s
  speed of sound: 1231.8 ± 1 m/s
  mass density: 761.41 ± 0.32 kg/m3
323.15 K, a2 = 1.5
  viscosity: 1.42 ± 0.01 mPa·s
  speed of sound: 1234.9 ± 1 m/s
  mass density: 759.24 ± 0.32 kg/m3
323.15 K, a2 = 2.997
  viscosity: 1.58 ± 0.01 mPa·s
  speed of sound: 1239.9 ± 1 m/s
  mass density: 756.48 ± 0.32 kg/m3
323.15 K, a2 = 3.001
  viscosity: 1.58 ± 0.01 mPa·s
  speed of sound: 1240.1 ± 1 m/s
  mass density: 756.48 ± 0.32 kg/m3
323.15 K, a2 = 3.998
  viscosity: 1.62 ± 0.01 mPa·s
  speed of sound: 1240.9 ± 1 m/s
  mass density: 755.63 ± 0.32 kg/m3
333.15 K, a2 = 0.25
  viscosity: 0.898 ± 0.012 mPa·s
  speed of sound: 1183.2 ± 1 m/s
  mass density: 762.02 ± 0.32 kg/m3
333.15 K, a2 = 0.3333
  viscosity: 0.942 ± 0.012 mPa·s
  speed of sound: 1185.7 ± 1 m/s
  mass density: 760.42 ± 0.32 kg/m3
333.15 K, a2 = 0.3335
  viscosity: 0.942 ± 0.012 mPa·s
  speed of sound: 1185.6 ± 1 m/s
  mass density: 760.52 ± 0.32 kg/m3
333.15 K, a2 = 0.6667
  viscosity: 1.06 ± 0.01 mPa·s
  speed of sound: 1191.2 ± 1 m/s
  mass density: 756.56 ± 0.32 kg/m3
333.15 K, a2 = 0.9992
  viscosity: 1.14 ± 0.01 mPa·s
  speed of sound: 1196.2 ± 1 m/s
  mass density: 754.28 ± 0.32 kg/m3
333.15 K, a2 = 0.9997
  viscosity: 1.14 ± 0.01 mPa·s
  speed of sound: 1196.2 ± 1 m/s
  mass density: 754.28 ± 0.32 kg/m3
333.15 K, a2 = 1.5
  viscosity: 1.22 ± 0.01 mPa·s
  speed of sound: 1199.1 ± 1 m/s
  mass density: 752.17 ± 0.32 kg/m3
333.15 K, a2 = 2.997
  viscosity: 1.34 ± 0.01 mPa·s
  speed of sound: 1204.7 ± 1 m/s
  mass density: 749.48 ± 0.32 kg/m3
333.15 K, a2 = 3.001
  viscosity: 1.34 ± 0.01 mPa·s
  speed of sound: 1205 ± 1 m/s
  mass density: 749.49 ± 0.32 kg/m3
333.15 K, a2 = 3.998
  viscosity: 1.38 ± 0.01 mPa·s
  speed of sound: 1205.4 ± 1 m/s
  mass density: 748.65 ± 0.32 kg/m3
343.15 K, a2 = 0.25
  viscosity: 0.789 ± 0.012 mPa·s
  mass density: 754.6 ± 2 kg/m3
343.15 K, a2 = 0.3333
  viscosity: 0.827 ± 0.012 mPa·s
  mass density: 753.1 ± 0.9 kg/m3
343.15 K, a2 = 0.3335
  viscosity: 0.821 ± 0.012 mPa·s
  mass density: 753.2 ± 2 kg/m3
343.15 K, a2 = 0.6667
  viscosity: 0.926 ± 0.012 mPa·s
  mass density: 749.4 ± 2 kg/m3
343.15 K, a2 = 0.9992
  viscosity: 0.991 ± 0.012 mPa·s
  mass density: 747.2 ± 0.9 kg/m3
343.15 K, a2 = 0.9997
  viscosity: 0.991 ± 0.012 mPa·s
  mass density: 747.2 ± 2 kg/m3
343.15 K, a2 = 1.5
  viscosity: 1.06 ± 0.01 mPa·s
  mass density: 745.1 ± 2 kg/m3
343.15 K, a2 = 2.997
  viscosity: 1.16 ± 0.01 mPa·s
  mass density: 742.5 ± 2 kg/m3
343.15 K, a2 = 3.001
  viscosity: 1.16 ± 0.01 mPa·s
  mass density: 742.5 ± 0.9 kg/m3
343.15 K, a2 = 3.998
  viscosity: 1.19 ± 0.01 mPa·s
  mass density: 741.4 ± 2 kg/m3
